The source of these data is article PMC8212708 (Clinical and Translational Science, 2021).

Broadly, the inhibition is the relative decrease from the control value, in per cent.

For this assay, the target named is T1, human glucose transporter-1 (hGLUT-1) (Homo sapiens, UniProt P11166).
T1 sequence (P11166 1-492): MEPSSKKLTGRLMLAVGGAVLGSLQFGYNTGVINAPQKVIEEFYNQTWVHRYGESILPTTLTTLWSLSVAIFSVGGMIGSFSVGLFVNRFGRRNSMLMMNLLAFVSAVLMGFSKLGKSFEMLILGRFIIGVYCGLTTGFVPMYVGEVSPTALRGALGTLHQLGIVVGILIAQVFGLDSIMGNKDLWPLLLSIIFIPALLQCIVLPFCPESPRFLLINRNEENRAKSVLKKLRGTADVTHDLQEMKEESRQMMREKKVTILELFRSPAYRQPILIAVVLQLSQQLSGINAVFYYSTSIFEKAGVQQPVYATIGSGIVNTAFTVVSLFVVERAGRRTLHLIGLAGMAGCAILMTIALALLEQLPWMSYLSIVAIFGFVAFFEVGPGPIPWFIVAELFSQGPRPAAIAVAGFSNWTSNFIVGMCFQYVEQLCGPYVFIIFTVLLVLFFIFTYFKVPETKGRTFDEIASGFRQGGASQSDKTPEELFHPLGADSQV
Kind of assay: inhibition of [3H]2-DG. Type of assay: cell-based. The following applies: FaDu, read-out: % inhibition at 25 μM.
With `C#Cc1cccc(Nc2ncnc3cc(OC)c(OCCCCCCC(=O)NO)cc23)c1` [CUDC-101], the inhibition at 25 µM fell in the range of 80 to 90%.

As for `CC(C)c1cc(-c2n[nH]c(=O)n2-c2ccc3c(ccn3C)c2)c(O)cc1O` [Ganetespib], the inhibition at 25 µM is greater than 50%.

With `O=c1c(-c2ccc(O)cc2)coc2cc(O)cc(O)c12` [genistein], the inhibition at 25 µM is greater than 50%.
